The results in this text go back to ChEMBL document CHEMBL4387741, “Optimization of novel reversible Bruton's tyrosine kinase inhibitors identified using Tethering-fragment-based screens” (Bioorg Med Chem, 2019).

As usually defined, the inhibition is how much of the control response was suppressed. A word on the Papp A→B: it is the apparent permeability from the apical to the basolateral side of a cell layer.

Series [1] concerns Tyrosine-protein kinase ABL1 (Homo sapiens), P00519 [F317I]. As to the kind of experiment: Inhibition of human non-phosphorylated ABL1 F317I mutant (S229 to K512 residues) expressed in mammalian expression system at 1 uM by Kinomescan method relative to control.
Series [2] addresses 5'-AMP-activated protein kinase catalytic subunit alpha-2 (Homo sapiens) (UniProt P54646). The series can be described thus: Inhibition of wild-type human partial length AMPK alpha2 (M1 to E306 residues) expressed in bacterial expression system at 1 uM by Kinomescan method relative to control.
In series [3] the target is Bone morphogenetic protein receptor type-1B (Homo sapiens) (UniProt O00238). The series can be described thus: Inhibition of wild-type human partial length BMPR1B (D178 to L502 residues) expressed in mammalian expression system at 1 uM by Kinomescan method relative to control.
For series [4], the target named is Bone morphogenetic protein receptor type-2 (Homo sapiens) (UniProt Q13873). As to the kind of experiment: Inhibition of wild-type human partial length BMPR2 (R179 to Q526 residues) expressed in mammalian expression system at 1 uM by Kinomescan method relative to control.
In series [5] the target is Calcium/calmodulin-dependent protein kinase type 1B (Homo sapiens) (UniProt Q6P2M8). The series can be described thus: Inhibition of wild-type human partial length CAMK1B (W9 to A311 residues) expressed in mammalian expression system at 1 uM by Kinomescan method relative to control.
Series [6] has as its system Epidermal growth factor receptor (Homo sapiens), P00533 [T790M]. The series can be described thus: Inhibition of human partial length EGFR T790M mutant (R669 to G1022 residues) expressed in mammalian expression system at 1 uM by Kinomescan method relative to control.
In series [7] the test system is Fibroblast growth factor receptor 3 (Homo sapiens), P22607 [G697C]. The series can be described thus: Inhibition of human partial length FGFR3 G697C mutant (R442 to S771 residues) expressed in bacterial expression system at 1 uM by Kinomescan method relative to control.
Series [8] concerns the target Inhibitor of nuclear factor kappa-B kinase subunit alpha (Homo sapiens) (UniProt O15111). As to the kind of experiment: Inhibition of wild-type human full length IKK-alpha (M1 to E745 residues) expressed in mammalian expression system at 1 uM by Kinomescan method relative to control.
For series [9], the target named is Serine/threonine-protein kinase PAK 3 (Homo sapiens) (UniProt O75914). As to the kind of experiment: Inhibition of wild-type human full length PAK3 (M1 to R544 residues) expressed in bacterial expression system at 1 uM by Kinomescan method relative to control.
In series [10] the target is Cyclin-dependent kinase 15 (Homo sapiens) (UniProt Q96Q40). As to the kind of experiment: Inhibition of wild-type human full length PFTAIRE2 (M1 to W384 residues) expressed in bacterial expression system at 1 uM by Kinomescan method relative to control.
The target in series [11] is Phosphatidylinositol 4-phosphate 3-kinase C2 domain-containing subunit beta (Homo sapiens) (UniProt O00750). As to the kind of experiment: Inhibition of wild-type human partial length PIK3C2B (M1 to L1634 residues) expressed in mammalian expression system at 1 uM by Kinomescan method relative to control.
The target in series [12] is Phosphatidylinositol 5-phosphate 4-kinase type-2 gamma (Homo sapiens) (UniProt Q8TBX8). The series can be described thus: Inhibition of wild-type human partial length PIP5K2C (M1 to A421 residues) expressed in mammalian expression system at 1 uM by Kinomescan method relative to control.
Series [13] has as its target Ribosomal protein S6 kinase alpha-6 (Homo sapiens) (UniProt Q9UK32). The series can be described thus: Inhibition of wild-type human partial length N-terminal RSK4 kinase domain 1 (M1 to E397 residues) expressed in mammalian expression system at 1 uM by Kinomescan method relative to control.
Series [14] has as its target STE20/SPS1-related proline-alanine-rich protein kinase (Homo sapiens) (UniProt Q9UEW8). As to the kind of experiment: Inhibition of wild-type human partial length STK39 (P43 to I357 residues) expressed in mammalian expression system at 1 uM by Kinomescan method relative to control.
Series [15] addresses Testis-specific serine/threonine-protein kinase 3 (Homo sapiens) (UniProt Q96PN8). The series can be described thus: Inhibition of wild-type human full length TSSK3 (M1 to T268 residues) expressed in mammalian expression system at 1 uM by Kinomescan method relative to control.
Series [16] addresses Serine/threonine-protein kinase VRK2 (Homo sapiens) (UniProt Q86Y07). The series can be described thus: Inhibition of wild-type human partial length VRK2 (M1 to T336 residues) expressed in mammalian expression system at 1 uM by Kinomescan method relative to control.
Series [17] is described as follows: Apparent permeability from apical to basolateral side in human Caco2 cells at 5 uM after 120 mins by LC-MS/MS analysis. The note with it: Caco-2. It counts as ADME, cell-based.
Series [18] deals with Tyrosine-protein kinase ABL1 (Homo sapiens), P00519 [M351T]. As to the kind of experiment: Inhibition of human phosphorylated ABL1 M351T mutant (S229 to K512 residues) expressed in mammalian expression system at 10 uM by Kinomescan method relative to control.
Series [19] has as its system Tyrosine-protein kinase ABL1 (Homo sapiens), P00519 [T315I]. The series can be described thus: Inhibition of human phosphorylated ABL1 T315I mutant (S229 to K512 residues) expressed in mammalian expression system at 10 uM by Kinomescan method relative to control.
Series [20] concerns the target Dual specificity protein kinase CLK4 (Homo sapiens) (UniProt Q9HAZ1). The series can be described thus: Inhibition of wild-type human partial length CLK4 (R135 to K481 residues) expressed in bacterial expression system at 10 uM by Kinomescan method relative to control.
Series [21] concerns the target Mitogen-activated protein kinase 15 (Homo sapiens) (UniProt Q8TD08). As to the kind of experiment: Inhibition of wild-type human partial length ERK8 (M1 to P437 residues) expressed in bacterial expression system at 10 uM by Kinomescan method relative to control.
Series [22] addresses Tyrosine-protein kinase Fyn (Homo sapiens) (UniProt P06241). As to the kind of experiment: Inhibition of wild-type human partial length FYN (T243 to L534 residues) expressed in bacterial expression system at 10 uM by Kinomescan method relative to control.
For series [23], the target named is Homeodomain-interacting protein kinase 1 (Homo sapiens) (UniProt Q86Z02). The series can be described thus: Inhibition of wild-type human partial length HIPK1 (M146 to I555 residues) expressed in mammalian expression system at 10 uM by Kinomescan method relative to control.
In series [24] the target is Ribosomal protein S6 kinase alpha-5 (Homo sapiens) (UniProt O75582). The series can be described thus: Inhibition of wild-type human partial length C-terminal RPS6KA5 kinase domain 2 (V390 to T718 residues) expressed in bacterial expression system at 10 uM by Kinomescan method relative to control.
The target in series [25] is Ribosomal protein S6 kinase alpha-1 (Homo sapiens) (UniProt Q15418). The series can be described thus: Inhibition of wild-type human partial length C-terminal RSK1 kinase domain 2 (P360 to L681 residues) expressed in bacterial expression system at 10 uM by Kinomescan method relative to control.
Series [26] has as its target Serine/threonine-protein kinase TAO1 (Homo sapiens) (UniProt Q7L7X3). The series can be described thus: Inhibition of wild-type human partial length TAOK1 (M1 to A320 residues) expressed in mammalian expression system at 10 uM by Kinomescan method relative to control.
The target in series [27] is Mitogen-activated protein kinase kinase kinase 20 (Homo sapiens) (UniProt Q9NYL2). As to the kind of experiment: Inhibition of wild-type human partial length ZAK (M1 to L331 residues) expressed in bacterial expression system at 10 uM by Kinomescan method relative to control.

Mitogen-activated protein kinase 15 (Homo sapiens), sequence (Q8TD08 whole entry, the tested form may be a part): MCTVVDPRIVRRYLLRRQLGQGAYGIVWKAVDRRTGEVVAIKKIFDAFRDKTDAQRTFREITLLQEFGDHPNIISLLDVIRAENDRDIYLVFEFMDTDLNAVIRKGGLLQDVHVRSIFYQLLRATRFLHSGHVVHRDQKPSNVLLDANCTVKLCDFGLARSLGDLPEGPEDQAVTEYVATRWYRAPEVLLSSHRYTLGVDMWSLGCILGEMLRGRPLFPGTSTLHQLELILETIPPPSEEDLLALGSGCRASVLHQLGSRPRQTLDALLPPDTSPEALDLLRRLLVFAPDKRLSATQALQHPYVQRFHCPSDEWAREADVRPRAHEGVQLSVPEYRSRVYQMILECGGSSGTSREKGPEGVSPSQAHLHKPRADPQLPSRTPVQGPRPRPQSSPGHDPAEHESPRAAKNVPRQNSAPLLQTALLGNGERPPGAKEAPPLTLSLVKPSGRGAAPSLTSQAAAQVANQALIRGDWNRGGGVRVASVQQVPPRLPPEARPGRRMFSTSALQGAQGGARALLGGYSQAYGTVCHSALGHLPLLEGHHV
Bone morphogenetic protein receptor type-1B (Homo sapiens), sequence (O00238 whole entry, the tested form may be a part): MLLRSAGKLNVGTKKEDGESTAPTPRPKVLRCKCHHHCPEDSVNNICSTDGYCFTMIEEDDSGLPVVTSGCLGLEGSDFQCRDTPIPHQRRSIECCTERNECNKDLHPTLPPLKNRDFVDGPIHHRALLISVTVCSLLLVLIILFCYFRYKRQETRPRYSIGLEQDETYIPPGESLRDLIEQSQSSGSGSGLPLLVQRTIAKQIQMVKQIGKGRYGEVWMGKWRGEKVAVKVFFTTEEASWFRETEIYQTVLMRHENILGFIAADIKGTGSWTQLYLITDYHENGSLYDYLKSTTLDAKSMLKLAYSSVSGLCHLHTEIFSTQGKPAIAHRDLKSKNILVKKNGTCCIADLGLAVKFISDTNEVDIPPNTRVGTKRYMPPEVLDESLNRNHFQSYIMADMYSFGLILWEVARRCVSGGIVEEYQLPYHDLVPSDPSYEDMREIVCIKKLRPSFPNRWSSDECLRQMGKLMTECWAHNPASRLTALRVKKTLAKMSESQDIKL
5'-AMP-activated protein kinase catalytic subunit alpha-2 (Homo sapiens), sequence (P54646 whole entry, looked up, the tested form may be a part): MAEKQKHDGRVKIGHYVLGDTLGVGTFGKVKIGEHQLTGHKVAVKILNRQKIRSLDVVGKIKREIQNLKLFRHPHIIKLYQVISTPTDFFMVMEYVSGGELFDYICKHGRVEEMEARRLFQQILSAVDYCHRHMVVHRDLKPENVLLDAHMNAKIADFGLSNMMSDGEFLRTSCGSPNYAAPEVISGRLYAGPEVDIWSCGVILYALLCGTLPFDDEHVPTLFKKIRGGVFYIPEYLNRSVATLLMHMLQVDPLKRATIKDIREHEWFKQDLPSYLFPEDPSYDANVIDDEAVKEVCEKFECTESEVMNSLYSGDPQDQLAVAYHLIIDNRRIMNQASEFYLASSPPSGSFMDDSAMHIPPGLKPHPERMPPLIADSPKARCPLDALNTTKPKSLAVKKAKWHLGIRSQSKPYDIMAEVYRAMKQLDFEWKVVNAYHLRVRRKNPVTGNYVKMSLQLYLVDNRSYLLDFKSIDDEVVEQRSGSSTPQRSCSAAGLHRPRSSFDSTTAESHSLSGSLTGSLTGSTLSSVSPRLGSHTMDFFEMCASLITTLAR
Dual specificity protein kinase CLK4 (Homo sapiens), sequence (Q9HAZ1 whole entry, looked up, the tested form may be a part): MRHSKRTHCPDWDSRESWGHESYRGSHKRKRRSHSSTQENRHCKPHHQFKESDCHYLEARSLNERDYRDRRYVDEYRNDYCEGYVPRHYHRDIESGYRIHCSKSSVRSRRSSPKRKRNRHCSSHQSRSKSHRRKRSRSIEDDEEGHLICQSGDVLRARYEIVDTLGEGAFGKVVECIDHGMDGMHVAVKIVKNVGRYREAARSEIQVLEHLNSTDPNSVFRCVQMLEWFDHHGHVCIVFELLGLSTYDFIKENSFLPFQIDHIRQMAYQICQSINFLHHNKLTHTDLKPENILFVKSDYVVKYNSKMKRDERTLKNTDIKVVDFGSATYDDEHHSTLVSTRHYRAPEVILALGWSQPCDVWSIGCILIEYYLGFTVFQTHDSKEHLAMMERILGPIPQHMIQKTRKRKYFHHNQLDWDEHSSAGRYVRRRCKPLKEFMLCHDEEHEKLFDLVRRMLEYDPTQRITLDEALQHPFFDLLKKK
Ribosomal protein S6 kinase alpha-1 (Homo sapiens), sequence (Q15418 whole entry, the tested form may be a part): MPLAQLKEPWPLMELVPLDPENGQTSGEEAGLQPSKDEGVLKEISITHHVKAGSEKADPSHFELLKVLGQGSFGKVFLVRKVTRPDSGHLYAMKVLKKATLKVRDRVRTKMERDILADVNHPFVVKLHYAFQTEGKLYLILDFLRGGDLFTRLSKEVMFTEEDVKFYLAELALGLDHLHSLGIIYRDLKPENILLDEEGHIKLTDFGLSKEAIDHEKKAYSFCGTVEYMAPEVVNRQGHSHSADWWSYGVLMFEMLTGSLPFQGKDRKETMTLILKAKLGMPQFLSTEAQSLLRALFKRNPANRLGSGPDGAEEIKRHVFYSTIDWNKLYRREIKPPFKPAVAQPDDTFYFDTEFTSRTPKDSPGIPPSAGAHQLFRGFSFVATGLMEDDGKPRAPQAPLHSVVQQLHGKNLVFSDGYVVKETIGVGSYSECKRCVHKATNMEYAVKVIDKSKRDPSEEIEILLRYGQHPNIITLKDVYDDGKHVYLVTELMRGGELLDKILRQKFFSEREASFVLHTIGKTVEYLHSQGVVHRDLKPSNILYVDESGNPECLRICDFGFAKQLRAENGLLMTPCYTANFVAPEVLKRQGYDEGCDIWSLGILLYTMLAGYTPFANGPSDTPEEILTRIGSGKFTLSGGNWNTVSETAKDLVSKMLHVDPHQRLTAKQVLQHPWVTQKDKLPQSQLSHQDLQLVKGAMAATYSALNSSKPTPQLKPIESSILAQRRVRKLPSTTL
Ribosomal protein S6 kinase alpha-5 (Homo sapiens), sequence (O75582 whole entry, looked up, the tested form may be a part): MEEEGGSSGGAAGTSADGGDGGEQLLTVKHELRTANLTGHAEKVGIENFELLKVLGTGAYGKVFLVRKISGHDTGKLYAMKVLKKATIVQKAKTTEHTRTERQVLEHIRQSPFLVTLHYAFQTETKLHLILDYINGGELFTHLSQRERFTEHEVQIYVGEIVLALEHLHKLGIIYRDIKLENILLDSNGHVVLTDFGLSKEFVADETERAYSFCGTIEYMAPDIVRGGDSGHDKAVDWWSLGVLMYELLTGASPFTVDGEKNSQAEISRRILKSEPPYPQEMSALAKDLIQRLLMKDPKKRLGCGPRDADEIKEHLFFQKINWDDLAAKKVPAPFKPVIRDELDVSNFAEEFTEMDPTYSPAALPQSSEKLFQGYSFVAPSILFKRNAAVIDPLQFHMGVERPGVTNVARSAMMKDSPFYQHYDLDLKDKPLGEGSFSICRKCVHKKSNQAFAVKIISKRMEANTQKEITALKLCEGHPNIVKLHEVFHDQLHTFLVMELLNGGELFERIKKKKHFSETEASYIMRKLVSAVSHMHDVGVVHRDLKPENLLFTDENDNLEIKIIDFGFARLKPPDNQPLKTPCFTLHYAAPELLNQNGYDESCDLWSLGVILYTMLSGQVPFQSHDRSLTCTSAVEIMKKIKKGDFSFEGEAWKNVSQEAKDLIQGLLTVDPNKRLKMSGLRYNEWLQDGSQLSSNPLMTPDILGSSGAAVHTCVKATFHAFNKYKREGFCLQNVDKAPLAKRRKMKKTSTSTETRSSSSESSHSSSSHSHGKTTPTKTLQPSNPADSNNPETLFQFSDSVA
Ribosomal protein S6 kinase alpha-6 (Homo sapiens), sequence (Q9UK32 whole entry, the tested form may be a part): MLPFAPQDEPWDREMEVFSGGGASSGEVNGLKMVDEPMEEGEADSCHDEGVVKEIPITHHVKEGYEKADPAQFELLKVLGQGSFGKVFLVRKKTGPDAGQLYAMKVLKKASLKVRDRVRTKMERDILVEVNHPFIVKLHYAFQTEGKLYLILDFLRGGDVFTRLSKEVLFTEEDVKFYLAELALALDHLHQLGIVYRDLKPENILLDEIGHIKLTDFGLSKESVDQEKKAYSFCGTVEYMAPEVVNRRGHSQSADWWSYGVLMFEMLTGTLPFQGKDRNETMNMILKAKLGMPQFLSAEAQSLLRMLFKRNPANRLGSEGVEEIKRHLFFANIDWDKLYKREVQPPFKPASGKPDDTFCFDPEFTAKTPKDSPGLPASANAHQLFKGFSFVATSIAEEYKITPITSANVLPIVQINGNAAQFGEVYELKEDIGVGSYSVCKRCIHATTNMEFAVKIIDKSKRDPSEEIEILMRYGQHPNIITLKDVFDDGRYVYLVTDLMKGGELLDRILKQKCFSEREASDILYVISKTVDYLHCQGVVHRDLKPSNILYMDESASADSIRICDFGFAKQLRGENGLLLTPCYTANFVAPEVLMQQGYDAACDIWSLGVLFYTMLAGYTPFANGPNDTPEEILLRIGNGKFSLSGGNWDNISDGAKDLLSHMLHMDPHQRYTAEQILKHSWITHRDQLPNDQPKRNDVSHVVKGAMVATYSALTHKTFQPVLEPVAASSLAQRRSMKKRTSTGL
Tyrosine-protein kinase Fyn (Homo sapiens), sequence (P06241 2-537 limits assumed): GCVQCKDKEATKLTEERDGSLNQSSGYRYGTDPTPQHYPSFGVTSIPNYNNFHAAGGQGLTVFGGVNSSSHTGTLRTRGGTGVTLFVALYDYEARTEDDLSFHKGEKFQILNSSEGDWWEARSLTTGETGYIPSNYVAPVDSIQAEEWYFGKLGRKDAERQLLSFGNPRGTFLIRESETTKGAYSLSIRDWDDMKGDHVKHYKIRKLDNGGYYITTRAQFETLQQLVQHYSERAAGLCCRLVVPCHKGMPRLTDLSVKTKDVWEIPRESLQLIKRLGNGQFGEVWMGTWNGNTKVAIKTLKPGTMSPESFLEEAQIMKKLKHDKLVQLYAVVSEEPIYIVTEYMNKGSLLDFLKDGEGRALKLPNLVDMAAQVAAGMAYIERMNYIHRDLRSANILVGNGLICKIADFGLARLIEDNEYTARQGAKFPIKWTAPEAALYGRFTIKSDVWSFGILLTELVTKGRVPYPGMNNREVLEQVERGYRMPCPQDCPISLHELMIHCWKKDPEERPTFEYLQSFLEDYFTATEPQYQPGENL

On to `O=C(Nc1cccc([C@@H]2CN(c3ncnc4[nH]ccc34)CCN2CCO)c1)Nc1c(F)cccc1N1CCCC1`, for which the inhibition in series [1] came to 100%; in [2] it was 56%; in series [3], 63%; in [4], 91%; in [5], 98%; in [6] it was 96%. Moreover, the inhibition in [7] was found to be 100%; in series [8], 78%; in [9], 72%; in [10], 91%; in series [11], 87%; in series [12], 83%. The inhibition stood at 89% in series [13], 75% in series [14], 43% in series [15] and 100% in [16]. Also, the apparent permeability from apical to basolateral (Papp A→B) at 2 h, 5 µM in [17] was 4 ×10⁻⁶ cm/s.

On to `O=C(Nc1cccc([C@H]2CCCN(c3ncnc4[nH]ccc34)C2)c1)Nc1ccccc1N1CCCC1`, for which the inhibition is 71% in series [18]; 56% in series [19]; 96% in [20]; 99% in [21]; 67% in series [22]; 61% in series [23]. Moreover, the inhibition in series [24] is 75%; in series [25] it was 60%; in series [26], 62%; in [27] it was 100%.
